Experimental data reported in the supplement of paper PMC10307832.

What was measured:
Assay in all cases: relative viability (nuclei count vs DMSO), 5 days (fraction); higher = more cells survive
[1] = compound: O=C(C[C@H]1NCCC[C@@H]1O)Cn1cnc2cc(Br)c(Cl)cc2c1=O (racemic) [Halofuginone] + O=C(c1cc(Cc2n[nH]c(=O)c3ccccc23)ccc1F)N1CCN(C(=O)C2CC2)CC1 [Olaparib] (partner 8 µM)
How it was run: (§1)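 Lung cancer cell lines were pin-tool dosed in 1536-well plates on the day after seeding, with either a lone drug or a fixed anchor-drug dose plus five library-drug doses (not always all listed) in √10 steps. Nuclei were counted on 4× images after 5 days. Relative viability is the ratio of treated-well to vehicle-well nuclei counts, with each value a median of duplicate plates.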

[2] = compound: Nc1ncn([C@H]2C[C@H](O)[C@@H](CO)O2)c(=O)n1 [Decitabine] + Cc1nc(NC(=O)N2CCC[C@H]2C(N)=O)sc1-c1ccnc(C(C)(C)C(F)(F)F)c1 [Alpelisib] (partner 2 µM)
How it was run: as §1

[3] = compound: O=C(C[C@H]1NCCC[C@@H]1O)Cn1cnc2cc(Br)c(Cl)cc2c1=O (racemic) [Halofuginone] + CC1(C)CCC(c2ccc(Cl)cc2)=C(CN2CCN(c3ccc(C(=O)NS(=O)(=O)c4ccc(N[C@H](CCN5CCOCC5)CSc5ccccc5)c(S(=O)(=O)C(F)(F)F)c4)cc3)CC2)C1 [Navitoclax] (partner 0.5 µM)
How it was run: as §1

[4] = compound: O=C(C[C@H]1NCCC[C@@H]1O)Cn1cnc2cc(Br)c(Cl)cc2c1=O (racemic) [Halofuginone] + N=C(N)NC(=N)NCCc1ccccc1 [Phenformin] (partner 250 µM)
How it was run: as §1

Cell Line | relative viability ([1]; first compound 0.001 µM) | relative viability ([1]; first compound 0.003162 µM) | relative viability ([1]; first compound 0.01 µM) | relative viability ([1]; first compound 0.03162 µM) | relative viability ([1]; first compound 0.1 µM) | relative viability ([2]; first compound 0.04 µM) | relative viability ([2]; first compound 0.1265 µM) | relative viability ([2]; first compound 0.4 µM) | relative viability ([2]; first compound 1.265 µM) | relative viability ([2]; first compound 4 µM) | relative viability ([3]; first compound 0.001 µM) | relative viability ([3]; first compound 0.003162 µM) | relative viability ([3]; first compound 0.01 µM) | relative viability ([3]; first compound 0.03162 µM) | relative viability ([3]; first compound 0.1 µM) | relative viability ([4]; first compound 0.001 µM) | relative viability ([4]; first compound 0.003162 µM) | relative viability ([4]; first compound 0.01 µM) | relative viability ([4]; first compound 0.03162 µM) | relative viability ([4]; first compound 0.1 µM)
HCC-44 | 0.97 | 1.03 | 0.987 | 0.962 | 0.942 | 0.66 | 0.779 | 0.253 | 0.462 | 0.336 | 0.949 | 1.02 | 0.968 | 1.02 | 0.568 | 0.23 | 0.222 | 0.196 | 0.178 | 0.13
HCC-78 | 1.01 | 0.74 | 0.849 | 0.858 | 0.532 | 0.324 | 0.293 | 0.285 | 0.204 | 0.247 | 0.75 | 0.758 | 0.725 | 0.817 | 0.435 | 0.7 | 0.667 | 0.697 | 0.739 | 0.623
HCC-366 | 0.337 | 0.319 | 0.351 | 0.328 | 0.0775 | 0.455 | 0.597 | 0.31 | 0.133 | 0.0897 | 1.05 | 1.07 | 1.04 | 1.04 | 0.0551 | 0.723 | 0.633 | 0.646 | 0.581 | 0.458
HCC-827 | 0.673 | 0.588 | 0.667 | 0.631 | 0.599 |  | 0.426 | 0.356 | 0.279 | 0.311 | 1.05 | 1.05 | 1.01 | 1.01 | 0.852 | 0.407 | 0.426 | 0.373 | 0.434 | 0.38
HOP-62 | 0.493 | 0.473 | 0.415 | 0.296 | 0.129 | 0.652 | 0.323 | 0.152 | 0.124 | 0.125 | 1.14 | 0.785 | 0.933 | 1.04 | 0.873 | 0.663 | 0.707 | 0.676 | 0.634 | 0.603
IA-LM | 0.848 | 0.913 | 0.768 | 0.656 | 0.305 | 0.464 | 0.406 | 0.297 | 0.207 | 0.152 | 0.864 | 0.961 | 0.702 | 0.572 | 0.0557 |  |  |  |  | 
LC-2-ad | 0.675 | 0.697 | 0.692 | 0.678 | 0.669 | 0.726 | 0.742 | 0.681 | 0.378 | 0.304 | 0.555 | 0.469 | 0.43 | 0.459 | 0.101 | 0.694 | 0.581 | 0.536 | 0.677 | 0.466
LCLC-97TM1 | 0.445 | 0.314 | 0.392 | 0.387 | 0.233 | 0.172 | 0.151 | 0.14 | 0.129 | 0.112 | 0.501 | 0.476 | 0.363 | 0.327 | 0.212 | 0.4 | 0.408 | 0.351 | 0.417 | 0.332
LCLC-103H | 0.794 | 0.779 | 0.778 | 0.747 | 0.737 | 0.888 | 0.958 | 0.487 | 0.858 | 0.64 |  |  |  |  |  | 0.35 | 0.341 | 0.323 | 0.326 | 0.309
NCI-H358 | 0.653 | 0.556 | 0.459 | 0.26 | 0.124 | 0.747 | 0.519 | 0.383 | 0.266 | 0.238 |  |  |  |  |  | 0.303 | 0.312 | 0.261 | 0.189 | 0.079
NCI-H522 | 0.621 | 0.665 | 0.631 | 0.672 | 0.628 |  |  |  |  |  |  |  |  |  |  | 0.73 | 0.653 | 0.649 | 0.648 | 0.657
NCI-H650 | 0.395 | 0.389 | 0.408 | 0.36 | 0.286 | 0.739 | 0.538 | 0.484 | 0.326 | 0.29 |  |  |  |  |  | 0.507 | 0.501 | 0.437 | 0.424 | 0.374
NCI-H661 | 0.797 | 0.74 | 0.671 | 0.666 | 0.566 | 0.432 | 0.44 | 0.313 | 0.246 | 0.342 |  |  |  |  |  | 0.296 | 0.298 | 0.295 | 0.274 | 0.284
NCI-H1299 | 1 | 1.05 | 0.929 | 0.851 | 0.418 | 1.07 | 1.07 | 0.985 | 0.904 | 0.899 | 1.1 | 1.05 | 1.05 | 1.02 | 0.964 |  |  |  |  | 
NCI-H1563 |  |  |  |  |  | 1.06 | 0.965 | 1.02 | 0.97 | 0.824 |  |  |  |  |  | 0.659 | 0.638 | 0.615 | 0.602 | 0.549
NCI-H1623 |  |  |  |  |  |  |  |  |  |  |  |  |  |  |  | 0.624 | 0.548 | 0.59 | 0.576 | 0.432
NCI-H1648 | 1.25 | 1.15 | 1.21 | 0.979 | 0.936 |  |  |  |  |  |  |  |  |  |  |  |  |  |  | 
NCI-H1650 | 0.95 | 0.806 | 0.836 | 0.677 | 0.538 |  |  |  |  |  | 1.37 | 1.23 | 1.18 | 0.815 | 0.166 | 0.495 | 0.467 | 0.413 | 0.442 | 0.188
NCI-H1703 | 0.495 | 0.483 | 0.482 | 0.289 | 0.2 | 0.248 | 0.27 | 0.259 | 0.246 | 0.195 | 1.46 | 1.04 | 1.08 | 0.765 | 0.194 |  |  |  |  | 
NCI-H2342 | 0.644 | 0.431 | 0.413 | 0.431 | 0.427 |  |  |  |  |  |  |  |  |  |  | 0.719 | 0.566 | 0.561 | 0.688 | 0.547
SW 900 | 0.805 | 0.851 |  | 0.733 | 0.197 |  |  |  |  |  |  |  |  |  |  | 0.657 | 0.565 | 0.695 | 0.712 | 0.4
